# How the values were obtained:
# [1] = test system: CD74-ROS1-rearranged lung adenocarcinoma with acquired CD74-ROS1 D2033N mutation; experiment: Patient case: cabozantinib after acquired crizotinib resistance (phase II trial NCT01639508), RECIST v1.1; type: in vivo, human; details: one patient, 60 mg daily, at 12 weeks
# Description: The patient received cabozantinib at a dose of 60 mg daily in 28-day cycles as part of an ongoing phase II clinical trial (NCT01639508) with an arm for ROS1-rearranged lung cancers. Inclusion criteria for patients in this trial were as follows: pathologic or cytologic evidence of non-small-cell lung cancer (NSCLC), clinical stage IV or recurrent/medically inoperable disease, a Karnofsky performance status of more than 70%, a life expectancy of more than 12 weeks, adequate hematologic, renal, and hepatic function, and measurable disease. Informed consent was obtained after the nature and possible consequences of the studies were explained. Treatment was discontinued in the event of disease progression, unacceptable toxicity, or patient withdrawal. Dose reductions were permitted as per a prescribed algorithm. Response was assessed using the Response Evaluation Criteria in Solid Tumors (RECIST) version 1.1 (Eisenhauer E A et al, Eur J Cancer 45, 228-247 (2009); incorporated by reference herein). Imaging was performed at baseline, 4 weeks, and every 8 weeks thereafter. In addition, scans to confirm response were performed as per RECIST. […]
# Of 644 sequencing reads over that specific region of ROS1 that were at […] depth, the variant frequency of c.6097G>A was 14% in the crizotinib-resistant tumor specimen and undetectable the matched normal peripheral blood control. […]
# [2] = biological target: T1, Ba/F3 cells expressing CD74-ROS1 D2033N (Homo sapiens, UniProt P08922, D2033N); experiment: Cell growth/viability assay (MTS), Ba/F3 CD74-ROS1 D2033N; type: cell-based
# T1 construct: CD74 (fusion partner, N-terminal part of CD74); expressed in transfected cells; host or cells: Ba/F3 (murine pro-B), retroviral transduction, IL-3 withdrawn; the other entry of the earlier key: CD74 (P04233, HLA class II histocompatibility antigen gamma chain)
# T1 sequence (P08922 1883-2347 D2033N limits assumed): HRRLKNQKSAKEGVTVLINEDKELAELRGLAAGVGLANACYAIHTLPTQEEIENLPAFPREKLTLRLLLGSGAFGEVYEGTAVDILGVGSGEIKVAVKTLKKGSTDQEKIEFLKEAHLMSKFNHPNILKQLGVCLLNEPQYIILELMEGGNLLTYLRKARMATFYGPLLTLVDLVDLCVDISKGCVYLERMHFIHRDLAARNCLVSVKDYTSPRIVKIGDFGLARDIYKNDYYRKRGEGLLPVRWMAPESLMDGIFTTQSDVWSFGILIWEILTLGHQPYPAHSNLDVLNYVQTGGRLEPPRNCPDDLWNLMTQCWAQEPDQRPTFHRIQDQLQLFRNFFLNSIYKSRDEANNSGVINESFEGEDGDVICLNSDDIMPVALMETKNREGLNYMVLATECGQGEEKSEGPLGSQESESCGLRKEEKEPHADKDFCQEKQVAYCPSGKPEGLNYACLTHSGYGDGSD
# Description: (§1) CD74-ROS1D2033N was generated using site-directed mutagenesis by following manufacturer's protocol (Agilent). Ba/F3 cells were maintained at densities of 0.5-1.5×10^6 cells/mL and infected with retrovirus encoding native or mutant versions of human CD74-ROS1. GFP-based selection of transduced cells was performed with a FACSAria cell sorter (BD Biosciences). Stable cell lines were washed with complete medium to remove IL-3. Cells that grew out after IL-3 withdrawal were maintained in complete medium and used for in vitro assays.
# (§2) Inhibitors were prepared as 1 mM stocks in DMSO prior to each experiment. […] Ba/F3 cells expressing CD74-ROS1 constructs were seeded (800 cells/well; 25 μL) into drug plates using a Multidrop Combi Reagent Dispenser (Thermo Scientific), and plates were incubated for 72 h at 37° C., 5% CO2. Viability was measured using a methanethiosulfonate (MTS)-based assay (CellTiter96 Aqueous One Solution; Promega) read on a Biotek Synergy 2 plate reader. Proliferation experiments were performed three independent times in triplicate.
# [3] = biological target: T2, Ba/F3 cells expressing native CD74-ROS1 (Homo sapiens, UniProt P08922); experiment: Cell growth/viability assay (MTS), Ba/F3 native CD74-ROS1; type: cell-based; details: 72 h exposure, read-out: IC50, growth inhibition
# T2 construct: CD74 (fusion partner, N-terminal part of CD74); expressed in transfected cells; host or cells: Ba/F3 (murine pro-B), retroviral transduction, IL-3 withdrawn; the other entry of the earlier key: CD74 (P04233, HLA class II histocompatibility antigen gamma chain)
# T2 sequence (P08922 with tags, fused parts or gaps): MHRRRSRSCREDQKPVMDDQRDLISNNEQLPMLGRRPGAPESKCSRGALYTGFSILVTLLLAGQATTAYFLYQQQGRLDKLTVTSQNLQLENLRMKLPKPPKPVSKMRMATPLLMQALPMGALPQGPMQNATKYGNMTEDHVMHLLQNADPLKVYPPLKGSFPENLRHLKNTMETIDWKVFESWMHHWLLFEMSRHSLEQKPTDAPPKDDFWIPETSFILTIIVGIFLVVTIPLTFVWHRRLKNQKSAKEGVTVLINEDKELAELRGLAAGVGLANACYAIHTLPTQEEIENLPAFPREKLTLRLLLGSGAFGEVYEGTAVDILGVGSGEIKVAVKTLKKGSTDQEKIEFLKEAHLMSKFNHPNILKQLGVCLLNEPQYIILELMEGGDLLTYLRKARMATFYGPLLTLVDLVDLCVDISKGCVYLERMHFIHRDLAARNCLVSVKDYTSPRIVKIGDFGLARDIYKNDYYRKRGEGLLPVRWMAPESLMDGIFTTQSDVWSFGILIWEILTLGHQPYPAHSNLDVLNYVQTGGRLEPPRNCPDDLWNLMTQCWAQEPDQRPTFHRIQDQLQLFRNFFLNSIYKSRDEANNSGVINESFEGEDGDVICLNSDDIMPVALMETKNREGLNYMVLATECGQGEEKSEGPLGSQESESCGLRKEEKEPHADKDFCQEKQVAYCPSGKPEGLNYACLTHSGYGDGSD
# Description: as §1, §2
# [4] = test system: ROS1-rearranged lung cancers; details: phase 1 expansion cohort data; cited from earlier work
# Ba/F3 CD74-ROS1 cells = experiment: Immunoblot analysis of ROS1 and downstream effector phosphorylation, native CD74-ROS1 cells; type: cell-based, human; details: 2 h treatment
# Description: Ba/F3 CD74-ROS1 and CD74-ROS1D2033N […] cells were treated with the indicated concentrations of inhibitors for 2 h, pelleted, washed once in ice-cold PBS, and lysed in 200 μL of cell lysis buffer (Cell Signaling Technology) that was supplemented with 0.25% deoxycholate, 0.05% SDS, and protease and phosphatase inhibitors. Equal amounts of protein were extracted with SDS sample buffer for 15 min at 80° C. and resolved on 4-15% Tris-glycine or 4-12% Bis-Tris precast gels (Criterion; Bio-Rad). Proteins transferred to Immobilon-FL membranes (Millipore) were probed with: phospho-ROS1 [Cell Signaling Technology (CST); 3078, 1:1000], total ROS1 (CST; 3266, 1:1000), phospho-ERK1/2 (CST; 9101, 1:1000), total ERK2 (Santa Cruz; sc-1647, 1:2000), phospho-AKT (CST; 4060, 1:1000), AKT (BD Transduction Laboratories; 610860, 1:1000), pSHP2 (CST; 3703), pSTAT3 (CST, 9131), and GAPDH (Ambion; AM4300, 1:5000). Blots were imaged using either a LI-COR Odyssey imaging system or the Bio-Rad ChemiDoc imaging station according to the manufacturer's protocol for immunoblot detection with use of Infrared dye or horseradish peroxidase-conjugated secondary antibodies, respectively.
# [5] = test system: CD74-ROS1-rearranged lung adenocarcinoma; experiment: Patient case: crizotinib treatment, response by RECIST v1.1; type: in vivo, human; details: one patient, 250 mg twice daily
# From the text: A never smoker with metastatic lung adenocarcinoma involving the pleura received three cycles of first-line systemic therapy with cisplatin, pemetrexed, and bevacizumab (FIG. 1, FIG. 9).
compound,measurement,setting,value
COc1cc2nccc(Oc3ccc(NC(=O)C4(C(=O)Nc5ccc(F)cc5)CC4)cc3)c2cc1OC [cabozantinib],reduction in disease burden,[1],92%
same,IC50,"[2]; read-out: IC50, growth inhibition, Ba/F3 CD74-ROS1D2033N cells, 72 h exposure",2.8 nM
same,IC50,[3],0.78 nM
Cc1cc(Nc2ncc(Cl)c(Nc3ccccc3S(=O)(=O)C(C)C)n2)c(OC(C)C)cc1C1CCNCC1 [ceritinib],"fold decrease in sensitivity, CD74-ROS1D2033N compared to native CD74-ROS1","[2]; Ba/F3 cells, 72 h, ratio of IC50",4.3 fold
C[C@@H](Oc1cc(-c2cnn(C3CCNCC3)c2)cnc1N)c1c(Cl)ccc(F)c1Cl [crizotinib],median progression-free survival,[4],19 months
same,response rate,[4],72%
same,"inhibition of phosphorylation of ROS1 and downstream effectors SHP2, ERK1/2, AKT and STAT3",Ba/F3 CD74-ROS1 cells,dose-dependent inhibition
same,time on drug until widespread disease progression,[5],26 months
same,clinical response (in words),[5]; RECIST v1.1,durable partial response
same,reduction in disease burden,[5]; RECIST v1.1,64%
COc1cc2c(Oc3ccc(NC(=O)C4(C(=O)Nc5ccc(F)cc5)CC4)cc3F)ccnc2cc1OCCCN1CCOCC1 [foretinib],sensitivity of CD74-ROS1D2033N mutant (in words),"[2]; Ba/F3 cells, 72 h",remained highly sensitive
